Like-named read-outs stand apart in the source and are kept apart here.

The test system of this assay is head lice egg. Put plainly: Head lice egg hatching, time course. The following applies: 10 mM; for inhibition at 10000 µM: Pediculus humanus, 10 minutes, read-out: Percent inhibition of egg hatching relative to the control. It counts as in vivo, Pediculus humanus capitus. As for the experimental part:
Tests were carried out to determine if metal chelating agent and metalloprotease inhibitor 1,10-phenanthroline could inhibit head lice egg (Pediculus humanus capitus) hatching as opposed to body lice. Head lice eggs were obtained by placing groups of both 1-2 adult male and 6-8 adult female head lice in separate wells in a 24 well petri dish containing cotton cloth. The petri dish was transferred to a humid incubator at 32° C., 70% RH for 12 hours to permit the female lice to lay their eggs. After 12 hours, all adult lice were removed from the petri dish wells and a series of time-course experiments conducted. A group of eggs (24 hr old) was treated for 10 minutes with 200 μL of a 10 mM solution of 1,10-phenanthroline. A control (ie no inhibitor treatment) group of eggs was also included. The eggs were removed from the inhibitor, blotted dry on tissue paper, placed at 32° C., 70% RH and left to hatch. A second group of eggs, (48 hours old) were treated as previously described and also left to hatch. This process was repeated at 24 hour intervals on head lice eggs up to 120 hours post laying. This method of assaying inhibitors more closely mirrors the field situation where lice eggs will be at various stages of development on the head and permits the inhibitory effects to be observed on these different stages of the parasite.

Regarding `c1cnc2c(c1)ccc1cccnc12` [1,10-phenanthroline, reference compound], the “inhibition of egg hatching in head lice” value was “significantly inhibit egg hatching in head lice”. Also, under “treated day 1 post laying”, the inhibition (commonly the change of the read-out against control, counted positive when it falls) at 10000 µM came to 100%. Also, the inhibition at 10000 µM (treated day 2 post laying) stood at 87%. Moreover, the inhibition at 10000 µM (treated day 3 post laying) worked out at 88%. Besides, the inhibition at 10000 µM (treated day 4 post laying) was found to be 100%. For the same molecule, the inhibition at 10000 µM (treated day 5 post laying) stood at 100%.
